Target: T1, SghR (Agrobacterium tumefaciens, UniProt A0A2I4PGE9)
T1 sequence (A0A2I4PGE9 1-350): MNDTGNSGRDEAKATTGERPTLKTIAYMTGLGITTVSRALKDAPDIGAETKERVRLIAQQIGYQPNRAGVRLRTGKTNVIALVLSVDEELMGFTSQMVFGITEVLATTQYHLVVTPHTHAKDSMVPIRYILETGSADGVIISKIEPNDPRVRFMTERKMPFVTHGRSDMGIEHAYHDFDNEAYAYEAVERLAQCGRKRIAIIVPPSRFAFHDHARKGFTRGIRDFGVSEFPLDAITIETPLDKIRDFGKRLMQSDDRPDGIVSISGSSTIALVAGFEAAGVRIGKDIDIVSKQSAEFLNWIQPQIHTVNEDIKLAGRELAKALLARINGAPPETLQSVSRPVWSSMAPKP
Experiment: EMSA, dissociation of SghR from biotin-labelled sghA promoter
Format: binding
Details: sucrose 50 and 500 µM; inducer that releases the repressor from DNA

OC[C@H]1O[C@@](CO)(O[C@H]2O[C@H](CO)[C@@H](O)[C@H](O)[C@H]2O)[C@@H](O)[C@@H]1O [sucrose]
EMSA, dissociation of SghR from biotin-labelled sghA promoter: gel shift analysis demonstrated that sucrose dissociated repressor SghR from the sghA promoter
